Assay results as given in patent US20140066462A1, “TREATMENT OF POLYCYSTIC DISEASE” (Intellikine LLC, priority 2011, published 2014).

Legend:
PI3K (α, β, γ, and δ) = assay: selectivity of kinase inhibition, mTOR versus PI3K; type: biochemical; conditions: selectivity mTOR over PI3K α
mTOR kinase domain = mTOR kinase domain (Homo sapiens, UniProt P42345); assay: in vitro mTOR kinase assay (γ-32P-ATP, purified kinase domain); type: biochemical; conditions: 10 μM ATP
Experimental: Purified mTOR kinase domain was incubated with inhibitors at 2- or 4-fold dilutions over a concentration range of 50-0.001 μM or with vehicle (0.1% DMSO) in the presence of 10 μM ATP, 2.5 μCi of γ-32P-ATP and substrate. Reactions were terminated by spotting onto nitrocellulose or phosphocellulose membranes, depending on the substrate; this membrane was then washed 5-6 times to remove unbound radioactivity and dried. Transferred radioactivity was quantified by phosphorimaging and IC50 values were calculated by fitting the data to a sigmoidal dose-response using Prism software.

cellular proliferation = assay: inhibition of cellular proliferation; type: cell-based
PKD(V/V) mice [1] = assay: body and kidney mass in PKD(V/V) mice treated P5-P11; type: in vivo
Experimental: (§1) In order to study mechanisms of selective intervention for treating PKD, PKD(V/V) (“V/V”) mice were used. V/V mice are an animal model of PKD which are homozygous for a mutation in PKD 1 (the gene implicated in 85% of PKD). (Yu S, et al. Proc. Natl. Acad. Sci. U.S.A. 2007; 104: 18688-18693.) These mice develop severe PKD rapidly during the postnatal period. P11 V/V mice were treated with Compound A (0.5 mg/kg; “+”) or vehicle (“−”) p.o. Animals were sacrificed 2 hours later and kidney crude lysates were prepared and subjected to Western blot analysis.
(§2) To examine Compound A effects on kidney size in V/V mice, V/V mice were treated from P5-P11 with either vehicle or Compound A. Compound A dosing was 0.25 mg/kg on P5/P6, then 0.25 mg/kg bid on P7/P8, then 0.5 mg/kg bid on P9-11. Animals were sacrificed 2 hours after […] dose; kidneys were weighed, and one kidney was subjected to western blot and one to sectioning for histology.

PKD(V/V) mice [2] = assay: kidney histology (H&E sections) in PKD(V/V) mice treated P5-P11; type: in vivo; conditions: P5-P11 dosing
Experimental: as §2
Sagittal sections of the left kidney from mice treated with vehicle or Compound A were fixed, embedded in paraffin, and sectioned for histological analysis as described in Piontek K B, et. al, (2004) J Am Soc Nephrol 15:3035-33043. Sections were stained with H&E at observed with a microscope at 4×, […], 20×, and 40× magnification. (FIGS. 6-9) Cyst volume was lower and parenchyma was increased in Compound A-treated mice, quantitated using ImageJ software. The number of glomeruli was increased in the Compound A treated section as compared to the vehicle treated section. […] (FIG. 9)

mTOR1/2 signaling = assay: Western blot of kidney crude lysates of treated PKD(V/V) mice; type: in vivo; conditions: 0.5 mg/kg p.o., kidney lysates 2 hours later
Experimental: as §1
Whole kidneys were isolated from mice and immediately flash frozen. Tissues were ground using a mortar and pestle under a blanket of liquid nitrogen followed by homogenization in lysis buffer. Supernatants were loaded in gels and proteins were separated via electrophoresis. Primary antibodies were used to assess the following proteins: p-Akt (S473), p-Akt (T308), total-Akt, p-4E-BP1, total-4E-BP1, p-S6 ribosomal protein, and total-S6 ribosomal protein.

[3] = left kidney sagittal sections, ImageJ

Chain of mTOR kinase domain (P42345 2156-2469 limits assumed, species assumed): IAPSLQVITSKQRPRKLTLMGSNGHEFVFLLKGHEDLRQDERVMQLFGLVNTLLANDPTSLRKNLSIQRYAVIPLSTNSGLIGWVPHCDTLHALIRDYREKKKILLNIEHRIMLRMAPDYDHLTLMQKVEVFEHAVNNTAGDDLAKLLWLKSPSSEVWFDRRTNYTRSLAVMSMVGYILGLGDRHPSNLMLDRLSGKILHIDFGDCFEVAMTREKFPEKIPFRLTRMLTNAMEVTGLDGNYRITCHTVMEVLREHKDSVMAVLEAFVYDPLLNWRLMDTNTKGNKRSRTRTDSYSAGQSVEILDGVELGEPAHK

| Structure (SMILES) | more effective in inhibiting mTOR activity than that of PI3K (α, β, γ, and δ) (PI3K (α, β, γ, and δ)) | IC50 (mTOR kinase domain) [µM] | IC50 (cellular proliferation) [µM] | kidney mass in Het/WT (PKD(V/V) mice [1]; Het/WT mice, P5-P11 dosing, p=0.22) | normalized kidney mass in Het/WT mice (PKD(V/V) mice [1]; Het/WT mice, P5-P11 dosing, p=0.5) | Body mass in mutant and in Het/WT mice (PKD(V/V) mice [1]; P5-P11, 0.25 mg/kg P5/P6, 0.25 mg/kg bid P7/P8, 0.5 mg/kg bid P9-11, p<0.05) | Average kidney mass, compared to vehicle treated mutants (PKD(V/V) mice [1]; V/V mutants, P5-P11 dosing, p=0.007) | Normalized kidney mass (combined kidney weight/body weight), compared with vehicle-treated mutants (PKD(V/V) mice [1]; V/V mutants, P5-P11 dosing, p=0.01) | number of glomeruli, compared to the vehicle treated section (PKD(V/V) mice [2]; 20× magnification) | appearance of the glomeruli, compared to the untreated kidney (PKD(V/V) mice [2]; 40× magnification) | Cyst volume (PKD(V/V) mice [2]; [3]) | parenchyma (PKD(V/V) mice [2]; [3]) | Baseline phosphorylation of S6 in wt and mutant mice (mTOR1/2 signaling) | S6-RP expression (mTOR1/2 signaling) | Akt S473 and T308 phosphorylation (mTOR1/2 signaling; P11 V/V mice) | Total Akt (mTOR1/2 signaling; P11 V/V mice) | p4E-BP1 in mutant mice (mTOR1/2 signaling; P11 V/V mice) | pS6-RP in mutant mice (mTOR1/2 signaling; P11 V/V mice) | Baseline phosphorylation and expression of 4E-BP1 in wt mice (mTOR1/2 signaling; wt mice) |
| --- | --- | --- | --- | --- | --- | --- | --- | --- | --- | --- | --- | --- | --- | --- | --- | --- | --- | --- | --- |
| CC(C)(CO)n1nc(-c2ccc3oc(N)nc3c2)c2c(N)ncnc21 [Compound A] | over 1000 × | < 0.1 | 0.01 to 0.1 | not significantly changed | no significant effect | decreased | significantly lower | significantly lower | increased | appeared normal | lower | increased | markedly attenuated | relatively unaffected | moderately attenuated | unaffected | markedly inhibited | markedly inhibited | markedly attenuated |
| CC(CO)n1nc(-c2ccc3oc(N)nc3c2)c2c(N)ncnc21 (stereo not drawn) [Compound B] | – | < 0.1 | – | – | – | – | – | – | – | – | – | – | – | – | – | – | – | – | – |
| CC(=O)Nc1nc2cc(-c3nn(C(C)C)c4ncnc(N)c34)ccc2o1 [Compound D] | – | < 0.1 | – | – | – | – | – | – | – | – | – | – | – | – | – | – | – | – | – |
